Measured values reported in PMC3128102, “A Single Sex Pheromone Receptor Determines Chemical Response Specificity of Sexual Behavior in the Silkmoth Bombyx mori” (PLoS Genetics, 2011).

Assays:
[1] = target: T1, PxOR1 coexpressed with PxOR83 (Plutella xylostella, UniProt B5MEK0); test: electrophysiology, agonist-induced current in Xenopus oocytes; type: cell-based; details: read-out: 50% effective concentration
T1 construct: coexpressed in Xenopus oocytes; heteromeric OR complex; with Odorant receptor coreceptor
T1 sequence (B5MEK0 1-422): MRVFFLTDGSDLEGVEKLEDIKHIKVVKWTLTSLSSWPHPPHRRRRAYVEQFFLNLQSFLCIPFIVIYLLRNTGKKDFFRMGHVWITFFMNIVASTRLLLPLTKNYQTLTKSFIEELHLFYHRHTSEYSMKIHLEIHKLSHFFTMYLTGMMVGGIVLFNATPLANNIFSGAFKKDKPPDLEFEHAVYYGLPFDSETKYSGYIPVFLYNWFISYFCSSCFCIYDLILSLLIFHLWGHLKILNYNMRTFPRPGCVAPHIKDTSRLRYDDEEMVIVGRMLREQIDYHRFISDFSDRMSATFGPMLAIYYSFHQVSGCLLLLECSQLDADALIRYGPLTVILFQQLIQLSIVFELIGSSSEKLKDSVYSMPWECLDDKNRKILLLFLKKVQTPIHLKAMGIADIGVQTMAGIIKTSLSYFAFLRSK
T1 sequence (D0EZE1 1-471 partner): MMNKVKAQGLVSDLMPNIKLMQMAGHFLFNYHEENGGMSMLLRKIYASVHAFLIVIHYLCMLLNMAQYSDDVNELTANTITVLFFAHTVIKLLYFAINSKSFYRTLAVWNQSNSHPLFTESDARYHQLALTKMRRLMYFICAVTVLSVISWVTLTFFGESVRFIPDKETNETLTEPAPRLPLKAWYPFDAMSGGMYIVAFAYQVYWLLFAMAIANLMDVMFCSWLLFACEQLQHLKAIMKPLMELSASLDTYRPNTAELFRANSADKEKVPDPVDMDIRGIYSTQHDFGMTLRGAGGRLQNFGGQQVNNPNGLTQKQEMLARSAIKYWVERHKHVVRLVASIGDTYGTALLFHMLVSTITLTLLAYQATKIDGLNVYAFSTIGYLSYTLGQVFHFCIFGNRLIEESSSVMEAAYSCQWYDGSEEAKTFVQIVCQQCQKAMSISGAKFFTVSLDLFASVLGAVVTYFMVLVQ

[2] = target: T2, PxOR1 coexpressed with BmOR2 (Plutella xylostella, UniProt B5MEK0); test: as above; type: cell-based; details: PxOR1 with Bombyx mori co-receptor BmOR2, applied sequentially to same oocyte, n = 10, read-out: 50% effective concentration
T2 construct: coexpressed in Xenopus oocytes; mixed-species heteromeric OR complex, PxOR1 of Plutella xylostella with BmOR2 of Bombyx mori; with Odorant receptor coreceptor (Bombyx mori)
T2 sequence (B5MEK0 1-422): T1 sequence (B5MEK0 1-422)
Source text: electrophysiology, agonist-induced current in Xenopus oocytes on PxOR1 coexpressed with BmOR2 | PxOR1 with PxOR83 and PxOR1 with BmOR2, respectively

EC50 [1]: 420 nM
EC50 [2]: 1200 nM
SMILES: CCCC/C=C\CCCCCCCCCC=O [Z11-16:Ald, (Z)-11-hexadecenal]
